According to the supplement of paper PMC10307832:

Tests used:
Assay in all cases: relative viability (nuclei count vs DMSO), 5 days (fraction); higher = more cells survive
[1] = compound: Cc1nc(NC(=O)N2CCC[C@H]2C(N)=O)sc1-c1ccnc(C(C)(C)C(F)(F)F)c1 [Alpelisib] + N=C(N)NC(=N)NCCc1ccccc1 [Phenformin] (partner 250 µM)
Outline: (§1)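 Lung cancer cell lines were pin-tool dosed in 1536-well plates on the day after seeding, with either a lone drug or a fixed anchor-drug dose plus five library-drug doses (not always all listed) in √10 steps. Nuclei were counted on 4× images after 5 days. Relative viability is the ratio of treated-well to vehicle-well nuclei counts, with each value a median of duplicate plates.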

[2] = compound: COc1cccc2cc(-c3nc([C@H]4CC[C@H](C(=O)O)CC4)n4ncnc(N)c34)[nH]c12 [OSI-027] + C[C@]1(O)C[C@@H](c2nc(-c3ccc4ccc(-c5ccccc5)nc4c3)c3c(N)nccn32)C1 [Linsitinib] (partner 1 µM)
Outline: as §1

[3] = compound: CCCS(=O)(=O)Nc1ccc(F)c(C(=O)c2c[nH]c3ncc(-c4ccc(Cl)cc4)cc23)c1F [Vemurafenib] + C[C@]1(O)C[C@@H](c2nc(-c3ccc4ccc(-c5ccccc5)nc4c3)c3c(N)nccn32)C1 [Linsitinib] (partner 1 µM)
Outline: as §1

[4] = compound: Cc1nc(NC(=O)N2CCC[C@H]2C(N)=O)sc1-c1ccnc(C(C)(C)C(F)(F)F)c1 [Alpelisib] + COc1cccc2cc(-c3nc([C@H]4CC[C@H](C(=O)O)CC4)n4ncnc(N)c34)[nH]c12 [OSI-027] (partner 0.5 µM)
Outline: as §1

| Cell Line | relative viability ([1]; first compound 0.04 µM) | relative viability ([1]; first compound 0.1265 µM) | relative viability ([1]; first compound 0.4 µM) | relative viability ([1]; first compound 1.265 µM) | relative viability ([1]; first compound 4 µM) | relative viability ([2]; first compound 0.01 µM) | relative viability ([2]; first compound 0.03162 µM) | relative viability ([2]; first compound 0.1 µM) | relative viability ([2]; first compound 0.3162 µM) | relative viability ([2]; first compound 1 µM) | relative viability ([3]; first compound 0.03162 µM) | relative viability ([3]; first compound 0.1 µM) | relative viability ([3]; first compound 0.3162 µM) | relative viability ([3]; first compound 1 µM) | relative viability ([4]; first compound 0.04 µM) | relative viability ([4]; first compound 0.1265 µM) | relative viability ([4]; first compound 0.4 µM) | relative viability ([4]; first compound 1.265 µM) | relative viability ([4]; first compound 4 µM) |
| --- | --- | --- | --- | --- | --- | --- | --- | --- | --- | --- | --- | --- | --- | --- | --- | --- | --- | --- | --- |
| 201T | 0.437 | 0.485 | 0.428 | 0.348 | 0.349 | 0.932 | 0.974 | 1.01 | 0.833 | 0.936 | 0.994 | 0.969 | 1.06 | 0.989 | 0.811 | 0.566 | 0.661 | 0.471 | 0.402 |
| A549 | 0.147 | 0.21 | 0.172 | 0.16 | 0.115 | 0.582 | 0.479 | 0.372 | 0.263 | 0.0989 | 0.584 | 0.444 | 0.515 | 0.567 | – | – | – | – | – |
| A-427 | 0.354 | 0.212 | 0.329 | 0.26 | 0.243 | 1.15 | 1.08 | 1.05 | 0.746 | 0.882 | 1.09 | 1.1 | 1.03 | 1.15 | 0.509 | 0.411 | 0.456 | 0.351 | 0.308 |
| ABC-1 | 0.256 | 0.252 | 0.211 | 0.233 | 0.222 | 0.768 | 0.749 | 0.58 | 0.32 | 0.316 | 0.711 | 0.753 | 0.942 | 0.853 | 0.475 | 0.347 | 0.418 | 0.283 | 0.356 |
| BEN | 0.262 | 0.239 | 0.267 | 0.296 | 0.281 | 0.923 | 0.613 | 0.627 | 0.384 | 0.271 | 0.913 | 0.921 | 0.683 | 0.724 | 0.295 | 0.299 | 0.276 | 0.315 | 0.245 |
| CAL-12T | 0.545 | 0.593 | 0.699 | 0.543 | 0.494 | 0.704 | 0.753 | 0.724 | 0.445 | 0.353 | 0.723 | 0.549 | 1.02 | 0.819 | 0.67 | 0.449 | 0.823 | 0.411 | 0.403 |
| COR-L23 | 0.388 | 0.414 | 0.49 | 0.402 | 0.36 | 1.02 | 0.837 | 0.792 | 0.549 | 0.181 | 0.774 | 0.733 | 0.789 | 1.01 | 0.81 | 0.713 | 0.938 | 0.566 | 0.492 |
| COR-L 105 | 0.446 | 0.593 | 0.669 | 0.416 | 0.415 | 1.07 | 0.737 | 0.966 | 0.749 | 0.431 | 1 | – | 1.3 | 1.17 | 0.715 | 0.567 | 0.846 | 0.527 | 0.513 |
| Calu-6 | – | – | – | – | – | 0.959 | 0.87 | 0.864 | 0.673 | 0.504 | – | 0.981 | 0.745 | 0.927 | – | – | – | – | – |
| ChaGo-K-1 | 0.495 | 0.495 | 0.453 | 0.435 | 0.346 | – | – | – | – | – | – | – | – | – | 0.543 | 0.592 | 0.49 | 0.394 | 0.342 |
| EBC-1 | – | – | – | – | – | 0.901 | 0.886 | 0.916 | 0.78 | 0.419 | 0.859 | 0.822 | 0.891 | 1.02 | – | – | – | – | – |
| EKVX | 0.234 | 0.229 | 0.253 | 0.225 | 0.192 | 0.986 | 0.894 | 0.779 | 0.652 | 0.292 | 0.942 | – | 1.03 | 1.02 | 0.594 | 0.531 | 0.773 | 0.496 | 0.356 |
| EMC-BAC-2 | 0.539 | 0.482 | 0.498 | 0.44 | 0.34 | 0.824 | 0.762 | 0.763 | 0.607 | 0.305 | 0.798 | 0.695 | 0.807 | 0.807 | 0.368 | 0.329 | 0.334 | 0.285 | 0.218 |
| EPLC-272H | 0.303 | 0.267 | 0.351 | 0.279 | 0.244 | 1.08 | 1.05 | 1.12 | 0.866 | 0.961 | 1.03 | 0.824 | 1.14 | 1.11 | 0.214 | 0.268 | 0.274 | 0.23 | 0.195 |
| H3255 | 0.352 | 0.375 | 0.336 | 0.25 | 0.335 | 0.943 | 1 | 0.929 | 0.825 | 0.452 | 1 | – | 0.757 | 0.983 | 0.526 | 0.583 | 0.635 | 0.363 | 0.384 |
| HARA | 0.48 | 0.451 | 0.555 | 0.331 | 0.301 | 0.894 | 0.803 | 0.908 | 0.831 | 0.201 | 0.942 | – | 0.987 | 0.771 | 0.396 | 0.287 | 0.48 | 0.255 | 0.164 |
| HCC-15 | 0.5 | 0.434 | 0.45 | 0.372 | 0.274 | 0.881 | 0.857 | 0.795 | 0.662 | 0.463 | 0.855 | 0.743 | 0.964 | 0.824 | 0.623 | 0.563 | 0.589 | 0.484 | 0.339 |
| HCC-44 | 0.248 | 0.174 | 0.187 | 0.141 | 0.161 | 0.646 | 0.628 | 0.584 | 0.452 | 0.195 | 0.612 | 0.67 | 0.709 | 0.716 | 0.519 | 0.419 | 0.541 | 0.307 | 0.451 |
| HCC-78 | 0.708 | 0.54 | 0.708 | 0.471 | 0.428 | 0.469 | 0.386 | 0.296 | 0.255 | 0.232 | 0.627 | 0.458 | 0.679 | 0.502 | 0.378 | 0.306 | 0.324 | 0.335 | 0.318 |
